Our source for the Ki and Kb values is ChEMBL document CHEMBL1127718, “Quinoline-4-carboxylic acids as angiotensin II receptor antagonists” (Bioorg Med Chem Lett, 1994).

For assay [1], the target named is T1, Type-1 angiotensin II receptor B (Rattus norvegicus, UniProt P29089).
T1 sequence (P29089 whole entry): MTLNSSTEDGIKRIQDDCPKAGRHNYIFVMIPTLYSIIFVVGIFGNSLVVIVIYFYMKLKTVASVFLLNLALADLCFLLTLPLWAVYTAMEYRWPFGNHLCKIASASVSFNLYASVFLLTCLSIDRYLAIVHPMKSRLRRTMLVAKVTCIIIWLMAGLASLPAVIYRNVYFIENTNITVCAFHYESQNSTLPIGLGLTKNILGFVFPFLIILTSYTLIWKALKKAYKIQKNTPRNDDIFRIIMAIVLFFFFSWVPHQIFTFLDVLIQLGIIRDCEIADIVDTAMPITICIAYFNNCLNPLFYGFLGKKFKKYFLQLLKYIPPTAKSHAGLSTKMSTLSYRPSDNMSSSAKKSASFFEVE
The experiment in a line: Inhibition of [125I]Sar1,Ile8 angiotensin II binding to Angiotensin II receptor type 1 in rat adrenocortical membrane. In kind it is cell membranes.

The species named for assay [2] is Oryctolagus cuniculus. Description: In vitro functional antagonism was determined by ability of a single concentration of compound to block AII induced contractions in rabbit aortic smooth muscle strip. As to conditions: Aorta.

`Cc1cccc2c(C(=O)O)c(Oc3ccc(-c4ccccc4-c4nnn[nH]4)cc3)c(C3CC3)nc12`: in assay [1], the Ki stood at 1300 nM. In addition, in assay [2], the Kb amounted to 8.3 nM.

Consider `Cc1cccc2nc(C3CC3)c(Oc3ccc(-c4ccccc4-c4nnn[nH]4)cc3)c(C(=O)O)c12`, for which the affinity in assay [1] corresponds to a Ki of 12 nM. The same molecule gave a Kb in assay [2] of 0.4 nM.

The molecule `O=C(O)c1c(Oc2ccc(-c3ccccc3-c3nnn[nH]3)cc2)c(C2CC2)nc2cccnc12` registered a Ki in assay [1] of 2.1 nM. The antagonist dissociation constant (Kb) in assay [2] amounted to 0.67 nM.

In turn, `O=C(O)c1c(Oc2ccc(-c3ccccc3-c3nn[nH]n3)cc2)c(C2CC2)nc2ccccc12` had a Ki in assay [1] of 2.9 nM. For the same molecule, in assay [2], the Kb worked out at 0.061 nM.

The molecule `Cc1nc2ccccc2c(C(=O)O)c1Oc1ccc(-c2ccccc2-c2nn[nH]n2)cc1` returned a Ki in assay [1] of 3.2 nM. Moreover, the Kb in assay [2] was 1.1 nM.

On to `O=C(O)c1c(Oc2ccc(-c3ccccc3-c3nnn[nH]3)cc2)c(C2CC2)nc2ncccc12`, for which the Ki in assay [1] amounted to 4.6 nM. In assay [2], this molecule came in with a Kb of 0.76 nM.

In assay [1], `O=C(O)c1cccc2nc(C3CC3)c(Oc3ccc(-c4ccccc4-c4nn[nH]n4)cc3)c(C(=O)O)c12` returned a Ki of 120 nM. In assay [2], the Kb turned out to be 2 nM.

In assay [1], `CCc1nc2ccccc2c(C(=O)O)c1Oc1ccc(-c2ccccc2-c2nn[nH]n2)cc1` showed a Ki of 5.9 nM. The Kb in assay [2] is 0.12 nM.

For `O=C(O)c1c(Oc2ccc(-c3ccccc3-c3nnn[nH]3)cc2)c(C2CC2)nc2ccc(F)cc12`, in assay [1], the Ki came to 14 nM. The Kb in assay [2] was found to be 0.61 nM.

In assay [1], `CCCc1nc2ccccc2c(C(=O)O)c1Oc1ccc(-c2ccccc2-c2nnn[nH]2)cc1` showed a Ki of 3.4 nM. Moreover, in assay [2], the Kb was determined as 0.091 nM.

In the case of `COc1ccc2nc(C3CC3)c(Oc3ccc(-c4ccccc4-c4nn[nH]n4)cc3)c(C(=O)O)c2c1`, affinity in assay [1] was put at a Ki of 33 nM. The molecule also had a Kb in assay [2] of 0.2 nM.

Take `O=C(O)c1c(Oc2ccc(-c3ccccc3-c3nn[nH]n3)cc2)c(C2CC2)nc2cc(Cl)ccc12`: in assay [1], the affinity, expressed as Ki, was 32 nM. The molecule also showed a Kb in assay [2] of 0.18 nM.
